Results taken from ChEMBL document CHEMBL1201862, “PubChem BioAssay data set” (2004).
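96-well plates; 48 h exposure; 5 concentrations. Endpoints by linear interpolation between flanking doses. Not reached: highest tested concentration assigned. Here, GI50 denotes the concentration required for 50% inhibition of growth.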 Calls of active or inactive are those of the source. Cut-off read from the data, not from the text of the source: active = GI50 up to about 1.1 µM and inactive = higher.

Legend:
Assay in all cases: DTP human tumour cell line panel, 48 h
HL-60 = system: HL-60
HCC 2998 = system: HCC 2998
OVCAR-3 = system: OVCAR-3
OVCAR-8 = system: OVCAR-8
MCF7 = system: MCF7
K562 = system: K562
NCI-H23 = system: NCI-H23
HT-29 = system: HT-29
OVCAR-5 = system: OVCAR-5
NCI-H460 = system: NCI-H460
HOP-62 = system: HOP-62
SR = system: SR
SK-OV-3 = system: SK-OV-3
COLO 205 = system: COLO 205
DMS-114 = system: DMS-114
KM12 = system: KM12
CCRF-CEM = system: CCRF-CEM
LOX IMVI = system: LOX IMVI
BT-549 = system: BT-549
SN12C = system: SN12C

Measured: GI50

Cc1nc2c(C)c3c([nH]c4ccc(Cl)cc43)c(C)c2c(O)c1C
inactive: HL-60 2.24 µM | HCC 2998 6.46 µM | OVCAR-3 7.94 µM | OVCAR-8 4.88 µM | MCF7 2.2 µM | K562 7.5 µM | NCI-H23 4.68 µM | HT-29 4.37 µM | OVCAR-5 6.76 µM | NCI-H460 2.07 µM | HOP-62 4.23 µM | SR 2.19 µM | SK-OV-3 16.5 µM | COLO 205 5.53 µM | DMS-114 19.8 µM | KM12 10.4 µM | CCRF-CEM 2.91 µM | LOX IMVI 4.06 µM | BT-549 14.9 µM | SN12C 5.24 µM

O=C1CCC(c2ccccc2)=NN1c1nc2ccccc2s1
inactive: HL-60 41.3 µM | HCC 2998 26.9 µM | OVCAR-3 17.9 µM | OVCAR-8 34.8 µM | MCF7 27 µM | K562 29.8 µM | NCI-H23 30.2 µM | HT-29 37.4 µM | OVCAR-5 > 63.5 µM | NCI-H460 27.7 µM | HOP-62 36.9 µM | SR 29.7 µM | SK-OV-3 25.2 µM | COLO 205 13.2 µM | DMS-114 31 µM | KM12 29.6 µM | CCRF-CEM 23.1 µM | LOX IMVI 38.6 µM | BT-549 27.6 µM | SN12C 29.4 µM

CCCCCCCC(=O)O[C@H]1[C@H]2[C@@H](CC1(C)C)C(=O)[C@]13O[C@H]1C(=O)[C@]1(CO1)[C@]23C
active: HL-60 0.124 µM | K562 0.573 µM | CCRF-CEM 0.0615 µM
inactive: HCC 2998 5.96 µM | OVCAR-3 2.91 µM | OVCAR-8 2.48 µM | MCF7 3.25 µM | NCI-H23 3.46 µM | HT-29 5.19 µM | OVCAR-5 11.1 µM | NCI-H460 5.71 µM | HOP-62 17.5 µM | SR 2.07 µM | SK-OV-3 34.3 µM | COLO 205 1.23 µM | DMS-114 3.41 µM | KM12 7.73 µM | LOX IMVI 1.34 µM | BT-549 15.5 µM | SN12C 4.17 µM

CCOC(=O)C1=C(C)N2CCOC2(C)C(C(=O)OC)C1c1cccc(Cl)c1 (stereo unspecified)
inactive: HL-60 56.4 µM | HCC 2998 > 100 µM | OVCAR-3 > 100 µM | OVCAR-8 > 100 µM | K562 81.5 µM | NCI-H23 > 100 µM | HT-29 > 100 µM | OVCAR-5 > 100 µM | NCI-H460 > 100 µM | HOP-62 > 100 µM | SR > 100 µM | SK-OV-3 > 100 µM | COLO 205 > 100 µM | DMS-114 54 µM | KM12 > 100 µM | CCRF-CEM > 100 µM | LOX IMVI > 100 µM | SN12C > 100 µM

N/C(=N\O)N/N=C/c1cccc(F)c1
inactive: HL-60 25.5 µM | HCC 2998 84.9 µM | OVCAR-3 75.2 µM | OVCAR-8 33 µM | K562 19.4 µM | NCI-H23 39 µM | HT-29 30.4 µM | OVCAR-5 33.7 µM | NCI-H460 26.4 µM | HOP-62 26.9 µM | SR 21.9 µM | SK-OV-3 55.7 µM | COLO 205 36.3 µM | DMS-114 22.9 µM | KM12 34.1 µM | CCRF-CEM 23.8 µM | LOX IMVI 26.8 µM | SN12C 44.2 µM
